The source of these data is patent publication US20190321324A1, “QUATERNARY AMINE ANTIBIOTIC THERAPEUTICS” (BOARD OF REGENTS, THE UNIVERSITY OF TEXAS SYSTEM, priority 2016, published 2019).

For experiment [1], the system named is C. difficile. As to the kind of experiment: C. difficile minimal bactericidal assay (MBC). The settings on record: Clostridioides difficile, 20 h, 20 h at 37° C., anaerobic. It counts as cell-based, Clostridium difficile. The procedure:
Activity of Otilonium bromide was also tested using two strains of C. difficile, 43255 and 630 (MDR). The minimal bactericidal assay was performed using 5×10^5 C. difficile bacteria where incubated with vancomycin or OB at the indicated concentrations for 20 h at 37° C. in an anaerobic chamber. The total volume per well in BHIS medium was 100 μl and 5 μL was spotted on RCM medium and plates were incubated for 24 h. The MBC is identified as the concentration of compound the reduced cfu to single or no numbers.

In experiment [2] the test system is A. baumannii. As to the kind of experiment: A. baumannii MIC of clinically used QACs. It counts as cell-based, Acinetobacter baumannii. Particulars: for MIC: unit assumed; for Prevention of growth (in words): antibiotic resistant and susceptible A. baumannii; for Effect of ribosomal mutations on MIC (in words): BAC resistant mutants, S11 and L24 (Mutants 1 and 4). The procedure: (§1) The antimicrobial activity of three QACs that have been approved for human use; Bretylium tosylate, Clofilium tosylate, and Otilonium bromide, were tested (FIG. 1). The length of the hydrocarbon tail on BAC is known to strongly influence its behavior. Clofilium tosylate and Otilonium bromide both have hydrocarbon tails that are hypothesized to allow cell envelope penetration. […] Similar activity was determine for these three compounds in S. aureus (Table 2)
BAC, Bretylium tosylate, Clofilium tosylate, and Otilonium bromide are all QACs but with different structures. […] Bretylium tosylate, Clofilium tosylate, and Otilonium bromide were tested on BAC resistant mutants representing mutations in ribosomal proteins S11, L23, L24 and the UTR of the ribosomal operon. […] The MIC to Otilonium bromide was not affected in these mutants.

The subject of experiment [3] is S. aureus. As to the kind of experiment: S. aureus MIC of clinically used QACs. It counts as cell-based, Staphylococcus aureus. Particulars: unit assumed. The procedure:
as §1

Experiment [4] relates to A. baumannii lon mutant. The experiment is described as follows: Sensitivity of A. baumannii lon mutant to Otilonium bromide treatment. It counts as cell-based, Acinetobacter baumannii.

Converted amounts (≈) assume the structure as drawn. Where a name gives a salt, the structure may show the parent alone. Read-outs that look alike come from different tables or passages of the source.

What is called MBC is the smallest concentration meeting the test's criterion for killing. Consider `CN[C@H](CC(C)C)C(=O)N[C@H]1C(=O)N[C@@H](CC(N)=O)C(=O)N[C@H]2C(=O)N[C@H]3C(=O)N[C@H](C(=O)N[C@H](C(=O)O)c4cc(O)cc(O)c4-c4cc3ccc4O)[C@H](O)c3ccc(c(Cl)c3)Oc3cc2cc(c3O[C@@H]2O[C@H](CO)[C@@H](O)[C@H](O)[C@H]2O[C@H]2C[C@](C)(N)[C@H](O)[C@H](C)O2)Oc2ccc(cc2Cl)[C@H]1O` [Vancomycin], for which the results for the MBC in experiment [1] (strain 630 (MDR)) and in experiment [1] (strain 43255) were roughly 2 µg/mL (≈ 1.38 µM) and 1 µg/mL (≈ 0.69 µM), respectively.
What is called MIC is the lowest concentration found to suppress growth. Regarding `CC[N+](C)(C)Cc1ccccc1Br` [Bertylium tosylate, Bretylium tosylate], the MIC in experiment [2] (BAC resistant Mutant 1 (20)), in experiment [2] (BAC resistant Mutant 4 (23)), in experiment [2] (BAC resistant Mutant 7 (19)), in experiment [2] (BAC resistant Mutant 8 (3)), in experiment [2] (strain 17978) and in experiment [2] (strain AYE (MDR)) was greater than 256 µg/mL throughout. In addition, the MIC in experiment [3] (strain MU50 (MDR)) and in experiment [3] (strain Newman) was greater than 256 µg/mL in each case. Moreover, the “Prevention of growth (in words)” value in experiment [2] is “did not show activity”.
As to Clofilium tosylate, the MIC is 256 µg/mL in experiment [2] (BAC resistant Mutant 7 (19)); 256 µg/mL in experiment [2] (BAC resistant Mutant 8 (3)); 128 µg/mL in experiment [2] (strain 17978); 128 µg/mL in experiment [2] (strain AYE (MDR)); 32 µg/mL in experiment [3] (strain MU50 (MDR)); 16 µg/mL in experiment [3] (strain Newman). Also, in experiment [2], the “Effect of ribosomal mutations on MIC (in words)” value is reported as “increased resistance”. Moreover, the “Prevention of growth (in words)” value in experiment [2] is “prevent growth”.
Turning to `CCCCCCCCOc1ccccc1C(=O)Nc1ccc(C(=O)OCC[N+](C)(CC)CC)cc1.[Br-]` [Otilonium bromide], the MIC in experiment [2] (BAC resistant Mutant 1 (20)), in experiment [2] (BAC resistant Mutant 4 (23)), in experiment [2] (BAC resistant Mutant 7 (19)), in experiment [2] (BAC resistant Mutant 8 (3)), in experiment [2] (strain 17978) and in experiment [2] (strain AYE (MDR)) was 16 µg/mL throughout. In addition, the MIC in experiment [3] (strain MU50 (MDR)) came out at 4 µg/mL; in experiment [3] (strain Newman), 2 µg/mL. In addition, the “Effect of ribosomal mutations on MIC (in words)” value in experiment [2] was “not affected”. Moreover, the “Prevention of growth (in words)” value in experiment [2] is recorded as “prevent growth”. Further, the “MIC compared with BAC” value in experiment [2] (strain 17978) is listed as “equivalent to that of BAC”. Besides, in experiment [4], the “Sensitivity of lon mutant (in words)” value is listed as “highly sensitized”. Moreover, the MBC in experiment [1] (strain 630 (MDR), read-out: MBC) turned out to be 2 µg/mL; in experiment [1] (strain 43255, read-out: MBC) it was 1 µg/mL.
